≈ marks a conversion by molar mass, not a printed value. Calls of active or inactive are those of the source. No cut-off for these calls is given here.
Assays:
Candida albicans [1] = assay: Fungicidal activity against Candida albicans ATCC 24433 assessed as reduction in fungal growth by measuring reduction in colony count at sub-MIC concentration measured after 48 hrs by time kill assay; type: functional, organism-based
Candida [2] = assay: Downregulation of SSZ1 gene expression in Candida cells; type: functional, cell-based
Candida [3] = assay: Downregulation of CDC4 gene expression in Candida cells; type: functional, cell-based
Candida [4] = assay: Downregulation of GIT3 gene expression in Candida cells; type: functional, cell-based
Candida albicans [5] = assay: Synergistic antifungal activity against Candida albicans SN152 harboring CAS5 mutant assessed as inhibition of fungal growth incubated for 48 hrs in presence of Amphotericin B by checker board assay; type: functional
Candida albicans [6] = assay: Upregulation of CaPHO15 gene expression in Candida albicans ATCC 24433 assessed as increase in glycerol content at sub-inhibitory concentration incubated for 2 hrs; type: functional
Candida albicans [7] = assay: Synergistic antifungal activity against Candida albicans ATCC 24433 assessed as Congo red MIC incubated for 48 hrs by checker board assay; type: functional
Candida parapsilosis [8] = assay: Synergistic antifungal activity against Candida parapsilosis ATCC 90018 assessed as Congo red MIC incubated for 48 hrs by checker board assay; type: functional; settings: Lodderomyces parapsilosis
Candida albicans [9] = assay: Synergistic antifungal activity against Candida albicans SN152 harboring CAS5 mutant assessed as Caspofungin MIC incubated for 48 hrs by checker board assay; type: functional
Candida [10] = assay: Downregulation of BMT5 gene expression in Candida cells; type: functional, cell-based
Candida albicans [11] = assay: Synergistic antifungal activity against wild type Candida albicans SN152 assessed as fractional inhibitory concentration index incubated for 48 hrs in presence of Caspofungin by checker board assay; type: functional
Candida [12] = assay: Downregulation of CCW14 gene expression in Candida cells; type: functional, cell-based
[Candida] auris [13] = Synergistic antifungal activity against Candida auris CBS10913 assessed as Calcoflour White MIC incubated for 48 hrs by checker board assay; type: functional; settings: Candidozyma auris
Candida albicans [14] = assay: Antifungal activity against Candida albicans ATCC 24433 overexpressing ADCDR1-GFP assessed as inhibition of fungal growth by broth microdilution method; type: functional
Candida albicans [15] = assay: Synergistic antifungal activity against Candida albicans ATCC 24433 assessed as inhibition of fungal growth incubated for 48 hrs in presence of Congo red by checker board assay; type: functional
Candida albicans [16] = assay: Synergistic antifungal activity against wild type Candida albicans SN152 assessed as fractional inhibitory concentration index incubated for 48 hrs in presence of Amphotericin B by checker board assay; type: functional
Candida [17] = assay: Upregulation of ARG4 gene expression in Candida cells; type: functional, cell-based
Candida [18] = assay: Downregulation of CCT6 gene expression in Candida cells; type: functional, cell-based
Candida albicans [19] = assay: Synergistic antifungal activity against wild type Candida albicans SN152 assessed as fluconazole MIC incubated for 48 hrs by checker board assay; type: functional
Candida albicans [20] = assay: Synergistic antifungal activity against wild type Candida albicans SN152 assessed as inhibition of fungal growth incubated for 48 hrs in presence of Caspofungin by checker board assay; type: functional
Candida [21] = assay: Downregulation of ACF2 gene expression in Candida cells; type: functional, cell-based
Candida [22] = assay: Upregulation of CPA2 gene expression in Candida cells; type: functional, cell-based
Candida albicans [23] = assay: Synergistic antifungal activity against Candida albicans ATCC 24433 assessed as fractional inhibitory concentration index incubated for 48 hrs in presence of caspofungin by checker board assay; type: functional
Candida albicans [24] = assay: Synergistic antifungal activity against Candida albicans ATCC 24433 overexpressing ADCDR1-GFP assessed as fractional inhibitory concentration index incubated for 48 hrs in presence of caspofungin by checker board assay; type: functional
Candida albicans [25] = assay: Synergistic antifungal activity against Candida albicans ATCC 24433 assessed as SDS MIC incubated for 48 hrs by checker board assay; type: functional
[Candida] auris [26] = Antifungal activity against wild type Candida auris 102 assessed as inhibition of fungal growth by broth microdilution method; type: functional; settings: Candidozyma auris
Candida albicans [27] = assay: Antifungal activity against Candida albicans SN152 harboring CAS5 mutant assessed as inhibition of fungal growth by broth microdilution method; type: functional
Candida parapsilosis [28] = assay: Synergistic antifungal activity against Candida parapsilosis ATCC 90018 assessed as Calcoflour White MIC incubated for 48 hrs by checker board assay; type: functional; settings: Lodderomyces parapsilosis
Candida [29] = assay: Downregulation of PGA48 gene expression in Candida cells; type: functional, cell-based
[Candida] auris [30] = Antifungal activity against Candida auris 118 assessed as inhibition of fungal growth by broth microdilution method; type: functional; settings: Candidozyma auris
Cell membrane [31] = assay: Disruption of membrane integrity in Candida auris CBS10913 assessed as cell shrinkage and lysis by measuring leakage of intracellular material measured after 6 hrs by SEM analysis; settings: Candidozyma auris
Cell membrane [32] = assay: Disruption of membrane integrity in Candida albicans ATCC 24433 assessed as cell surface perturbations measured after 3 hrs by SEM analysis
Candida albicans [33] = assay: Antifungal activity against Candida albicans ATCC 24433 overexpressing transporter protein F2 assessed as inhibition of fungal growth by broth microdilution method; type: functional
[Candida] auris [34] = Synergistic antifungal activity against Candida auris CBS10913 assessed as fractional inhibitory concentration index incubated for 48 hrs in presence of Calcoflour White by checker board assay; type: functional, Candidozyma auris
Candida albicans [35] = assay: Synergistic antifungal activity against Candida albicans ATCC 24433 assessed as Calcoflour White MIC incubated for 48 hrs by checker board assay; type: functional
Candida [36] = assay: Downregulation of RIO2 gene expression in Candida cells; type: functional, cell-based
Candida [37] = assay: Downregulation of CLN3 gene expression in Candida cells; type: functional, cell-based
Candida albicans [38] = assay: Synergistic antifungal activity against wild type Candida albicans SN152 assessed as inhibition of fungal growth incubated for 48 hrs in presence of fluconazole by checker board assay; type: functional
Candida albicans [39] = assay: Upregulation of NAG4 gene expression in Candida albicans ATCC 24433 by qRT-PCR analysis; type: functional
Candida [40] = assay: Upregulation of LSC1 gene expression in Candida cells; type: functional, cell-based
Candida parapsilosis [41] = assay: Antifungal activity against Candida parapsilosis ATCC 90018 assessed as inhibition of fungal growth by broth microdilution method; type: functional; settings: Lodderomyces parapsilosis
Candida [42] = assay: Downregulation of RLM1 gene expression in Candida cells; type: functional, cell-based
Candida [43] = assay: Downregulation of CDC42 gene expression in Candida cells; type: functional, cell-based
Candida [44] = assay: Downregulation of BMT4 gene expression in Candida cells; type: functional, cell-based
Candida [45] = assay: Upregulation of ARG1 gene expression in Candida cells; type: functional, cell-based
Candida albicans [46] = assay: Synergistic antifungal activity against Candida albicans ATCC 24433 assessed as fractional inhibitory concentration index incubated for 48 hrs in presence of Calcoflour White by checker board assay; type: functional
[Candida] auris [47] = Induction of ROS generation in Candida auris CBS10913 assessed as increase in relative fluorescence unit at sub-inhibitory concentration incubated for 1 hr by DCFDA staining-based flow cytometric analysis; type: functional, organism-based; settings: Candidozyma auris
Candida albicans [48] = assay: Antifungal activity against Candida albicans ATCC 24433 overexpressing transporter protein GU5 assessed as inhibition of fungal growth by broth microdilution method; type: functional
Candida albicans [49] = assay: Downregulation of CAS5 gene expression in Candida albicans ATCC 24433 by qRT-PCR analysis; type: functional
[Candida] auris [50] = Synergistic antifungal activity against Candida auris CBS10913 assessed as fractional inhibitory concentration index incubated for 48 hrs in presence of Congo red by checker board assay; type: functional, Candidozyma auris

**Q.** Which results are given for O=[N+]([O-])/C=C/c1ccc(O)cc1?
**A.** Activity (Candida albicans [1]): Active; Activity (Candida [2]): Active; Activity (Candida [3]): Active; Activity (Candida [4]): Active; MIC (Candida albicans [5]): 0.0312 µg/mL; Activity (Candida albicans [6]): Active; MIC (Candida albicans [7]): 3.12 µg/mL; MIC (Candida parapsilosis [8]): 6.25 µg/mL; MIC (Candida albicans [9]): 7.8 ng/mL; Activity (Candida [10]): Active; fractional inhibitory concentration index (FICI) (Candida albicans [11]): 0.257; Activity (Candida [12]): Active; MIC ([Candida] auris [13]): 25 µg/mL; MIC80 (Candida albicans [14]): 4 µg/mL (≈ 24.2 µM); MIC (Candida albicans [15]): 0.5 µg/mL; fractional inhibitory concentration index (FICI) (Candida albicans [16]): 0.507; Activity (Candida [17]): Active; Activity (Candida [18]): Active; MIC (Candida albicans [19]): 0.25 µg/mL; MIC (Candida albicans [20]): 0.0625 µg/mL; Activity (Candida [21]): Active; Activity (Candida [22]): Active; fractional inhibitory concentration index (FICI) (Candida albicans [23]): <3.5; fractional inhibitory concentration index (FICI) (Candida albicans [24]): <0.5; MIC (Candida albicans [25]): 12.5 µg/mL; MIC80 ([Candida] auris [26]): 2 µg/mL (≈ 12.1 µM); MIC80 (Candida albicans [27]): 2 µg/mL (≈ 12.1 µM); MIC (Candida parapsilosis [28]): 25 µg/mL; Activity (Candida [29]): Active; MIC80 ([Candida] auris [30]): 4 µg/mL (≈ 24.2 µM); Activity (Cell membrane [31]): Active; Activity (Cell membrane [32]): Active; MIC80 (Candida albicans [33]): 2 µg/mL (≈ 12.1 µM); fractional inhibitory concentration index (FICI) ([Candida] auris [34]): 0.625; MIC (Candida albicans [35]): 12.5 µg/mL; Activity (Candida [36]): Active; Activity (Candida [37]): Active; MIC (Candida albicans [38]): 3.9 ng/mL; Activity (Candida albicans [39]): Active; Activity (Candida [40]): Active; MIC80 (Candida parapsilosis [41]): 8 µg/mL (≈ 48.4 µM); Activity (Candida [42]): Active; Activity (Candida [43]): Active; Activity (Candida [44]): Active; Activity (Candida [45]): Active; fractional inhibitory concentration index (FICI) (Candida albicans [46]): 0.25; Activity ([Candida] auris [47]): Active; MIC80 (Candida albicans [48]): 4 µg/mL (≈ 24.2 µM); Activity (Candida albicans [49]): Active; fractional inhibitory concentration index (FICI) ([Candida] auris [50]): 0.3125
